Earlier results, collected in paper PMC11843658 (Journal of Enzyme Inhibition and Medicinal Chemistry, 2025).

System: Kasumi-1 xenograft
Parameters: method as in PMID 32551003
Settings: Kasumi-1 xenograft model of acute myeloid leukaemia; cited from earlier work

Question: With CC/C(=C\c1ccccc1)[C@@H]1C[C@H]1NC1CC2(C1)CN(CCO)C2 [Compound 5] as the compound, how does the “anticancer effects in xenograft model” value read?
Answer: Its value is “potent anticancer effects”.
